Experimental data from patent US12667546B2, “Methods for manipulating cell state transitions in cancer” (AGENCY FOR SCIENCE, TECHNOLOGY AND RESEARCH, priority 2018, dated 2026).
“And” between values parts separate entries of the source, which are not always exact repeats. Equal entries are not always repeated. Structures can show the parent of a compound that is named as a salt. Where two headings read alike, the source gives them in different places.

How the values were obtained:
[1] = system: NAMEC8-SERPINE1prom-Luc cells; experiment: Renilla-luciferase (constitutive CMV promoter) readout for cell numbers; type: cell-based, human; settings: for viability at 10 µM: Homo sapiens, 72 h, read-out: % Avr Renilla from DMSO
[2] = system: SERPINE1prom-Luc reporter in NAMEC8 cells; experiment: Dual-Glo luciferase assay of SERPINE1prom-Luc reporter (FF/Ren); type: cell-based, human; settings: for activity at 10 µM: Homo sapiens, 72 h, read-out: Avr FF/Renilla from DMSO; for dose-dependent change of SERPINE1 promoter activity: dose response (metabolic hits 10 nM to 2 μM; epigenetic hits six concentrations)
Excerpt: pGreenFire1-mCMV was cut using ClaI and SpeI and gel purified. Promoter sequences of genes Zeb1, Serpine1, CDH1, CD24, CD44, CD166 were amplified from human genomic DNA with pre-designed primers containing ClaI and SpeI restriction cut sites using AccuPrime Taq DNA Polymerase (Thermo Fisher Scientific). PCR products were then digested with restriction enzymes and gel-purified. Vector was ligated with PCR insert using Quick Ligase (Fermentas) and transformed into Stb12 competent cells. Colonies were picked and inoculated into TB media with ampicillin. Plasmids were then isolated using a plasmid miniprep kit (Qiagen) and sent for sequencing (1 stBASE Laboratories). After verifying the plasmid sequence, transfection into HEK293 cells was carried out to generate lentivirus. Transfection was carried out using FuGENE 6 (Promega). Viral supernatant was harvested at 24 h and 48 h. NAMEC8 cells were then infected twice with virus using polybrene ([…]) and checked for good transduction efficiency using Dual-Glo Luciferase System (Promega).
Stock plates of compound libraries were kindly prepared by GIS CHiP facility at 1 mM concentration in DMSO. NAMEC8-SERPINE1prom-Luc cells were seeded into 384 well plates at a density of 700 cells/well in a total volume of 50 μl, using an automated dispensing system (BioTek). 0.5 μl of compounds were then added to the wells the following day using a robotic pin transfer with a Bravo workstation (Agilent Technologies). Cells were then grown for 3 days and promoter-luciferase activity was measured using the Dual-Glo Luciferase System (Promega).
Assay was carried out according to manufacturer's instructions. To measure luciferase activity in 384 well plates, media was first removed from the plate. Firefly luciferase activity was determined by adding 30 μl Dual-Glo Luciferase substrate (Promega) to the wells and incubated for 10 min before measuring luminescence using a TECAN M1000 Pro plate reader. 15 μl Dual-Glo Stop & Glo substrate was then added to the wells, incubated for 10 min and measuring luminescence on the plate reader to determine Renilla luciferase activity. Promoter luciferase activity is then calculated by taking Firefly luciferase over Renilla luciferase.

[3] = primary screen, Renilla as readout for cell numbers, relative to DMSO
[4] = primary screen, NAMEC8-SERPINE1prom-Luc cells grown 3 days with compound, relative to DMSO
[5] = primary screen, […], relative to DMSO

Row | Compound | viability at 10 µM [1, 3] [%] | activity at 10 µM [2, 4] [%] | % Avr Renilla from DMSO [1, 3] | Avr FF/Renilla from DMSO [2, 4] | also measured
1 | CCCn1c(=O)c2[nH]c(-c3ccc(S(=O)(=O)O)cc3)nc2n(CCC)c1=O [1,3-Dipropyl-8-p-sulfophenylxanthine] | 103 | 61 |  |  | 
2 | O=c1[nH]c(=O)n([C@H]2C[C@H](O)[C@@H](CO)O2)cc1Br [5-Bromo-2′-deoxyuridine] | 65.7 | 67 |  |  | 
3 | CCCCC[C@H](O)/C=C/[C@H]1[C@H](O)CC(=O)[C@@H]1CC(=O)CCCCC(=O)O [6-keto Prostaglandin E1] |  |  | 79.67% | 0.55 | 
4 | CCCCC/C=C\C=C1\C(=O)C[C@H](O)[C@@H]1C/C=C\CCCC(=O)O [15-deoxy-_12,14-Prostaglandin D2] |  |  | 68.09% | 0.57 | 
5 | CCCCC(C)(C)[C@H](O)/C=C/[C@H]1C(=O)C[C@H](O)[C@@H]1C/C=C\CCCC(=O)O [16,16-dimethyl Prostaglandin D2] |  |  | 52.62% | 0.48 | 
6 | O=C(O)CCC/C=C\C[C@H]1C(=O)C=C[C@@H]1/C=C/[C@@H](O)COc1ccccc1 [16-phenoxy tetranor Prostaglandin A2] |  |  | 82.64% | 0.59 | 
7 | Cc1cccc(-c2nn(C(=S)Nc3ccccc3)cc2-c2ccnc3ccccc23)n1 [A83-01] |  |  |  |  | downregulation of SERPINE1prom-Luc ([2]; positive control treatment): at least 50%
8 | CCCCCCCCc1ccc(-c2ccc(C(=O)O)cc2)cc1 [AC-55649] |  |  | 106.55% | 0.59 | 
9 | N#C/C(=C\c1ccc(O)c(O)c1)C(=O)NCc1ccccc1 [AG-490] |  |  | 64.03% | 0.47 | 
10 | O=C(Nc1cccc(C(F)(F)F)c1)Nc1cc(S(=O)(=O)NC2CC2)ccc1-c1ccsc1 [AGI-6780] |  |  |  |  | dose-dependent change of SERPINE1 promoter activity [2]: dose dependent decrease in SERPINE1 promoter activity
11 | CN(Cc1cnc2nc(N)nc(N)c2n1)c1ccc(C(=O)N[C@@H](CCC(=O)O)C(=O)O)cc1 [Abitrexate (Methotrexate), Methotrexate] | 55.6 | 56 |  |  | 
12 | C=CCc1ccccc1OCC(O)CNC(C)C (centres unmarked) [Alprenolol hydrochloride] | 90.2 | 80 |  |  | 
13 | CCCCc1oc2ccccc2c1C(=O)c1cc(I)c(OCCN(CC)CC)c(I)c1 [Amiodarone hydrochloride] | 86.9 | 59 |  |  | 
14 | S=C(NCc1ccc2c(c1)OCO2)N1CCN(c2ncnc3c2oc2ccccc23)CC1 [Amuvatinib (MP-470)] |  |  | 140.20% and 213.43% | 0.37 and 0.23 | 
15 | CN1CCc2cccc3c2[C@H]1Cc1ccc(O)c(O)c1-3 [Apomorphine hydrochloride hemihydrate] | 85.1 | 84 |  |  | 
16 | Cc1cc(Nc2ncnc3ccc(NC4=NC(C)(C)CO4)cc23)ccc1Oc1ccn2ncnc2c1 [Arry-380] | 67.3 | 73 |  |  | 
17 | C[N+]1(C)[C@@H]2CC[C@H]1C[C@@H](OC(=O)C(CO)c1ccccc1)C2 (some centres unmarked) [Atropine methyl nitrate] | 103 | 68 |  |  | 
18 | CCCCCCCCCCCCC/C=C/[C@@H](O)[C@H](CO)NC(=O)CCCCCCC [C-8 Ceramide] |  |  | 70.74% | 0.54 | 
19 | CS(=O)(=O)N1CCc2c(-c3cnc(N)nc3)nc(N3CCOCC3)nc21 [CH5132799] | 50.6 | 71 |  |  | 
20 | CC1(C(=O)O)C2CCC(O2)C1(C)C(=O)O (centres unmarked) [Cantharidic Acid] | 74.6 |  |  |  | activity at 10 µM [2, 5]: 40%
21 | NC(=O)c1ccc(-c2nc(-c3ccc4c(c3)OCCO4)c(-c3ccccn3)[nH]2)cc1 [D 4476] |  |  | 53.26% | 0.57 | 
22 | COc1cccc(Nc2c(C(N)=O)cnc3c(C)cc(S(=O)(=O)c4cccc(C(=O)N(C)C)c4)cc23)c1 [GSK256066] |  |  |  |  | dose-dependent change of SERPINE1 promoter activity [2]: dose dependent decrease in SERPINE1 promoter activity
23 | CC1=C(/C=C/C(C)=C/C=C/C(C)=C\C(=O)O)C(C)(C)CCC1 [Isotretinoin] | 84.1 | 37 |  |  | 

Row | Compound | viability at 10 µM [1, 3] [%] | activity at 10 µM [2, 4] [%] | % Avr Renilla from DMSO [1, 3] | Avr FF/Renilla from DMSO [2, 4] | also measured
24 | CN([C@@H](Cc1ccc(OS(=O)(=O)c2cccc3cnccc23)cc1)C(=O)N1CCN(c2ccccc2)CC1)S(=O)(=O)c1cccc2cnccc12 [KN-62] |  |  | 67.80% | 0.43 | 
25 | COc1ccc(S(=O)(=O)N(CCO)c2ccccc2CN(C)C/C=C/c2ccc(Cl)cc2)cc1 [KN-93] |  |  | 54.45% | 0.59 | 
26 | COc1ccc(Br)cc1S(=O)(=O)NC(=O)/C=C/c1ccccc1Cc1ccc2ccccc2c1 [L-798106] |  |  | 68.99% | 0.13 | 
27 | N[C@@H](CC(=O)O)C(=O)O [L-Aspartic acid] | 99.3 | 71 |  |  | 
28 | CC1(C)CNc2cc(NC(=O)c3cccnc3NCc3ccncc3)ccc21 [Motesanib Diphosphate (AMG-706), Motesanib Diphosphate] | 50.9 | 70 |  |  | 
29 | CCN(CC)CCCCNc1ncc2cc(-c3c(Cl)cccc3Cl)c(NC(=O)NC(C)(C)C)nc2n1 [PD-161570] |  |  | 74.13% | 0.39 | 
30 | CNC(=O)c1ccc(C)c(-n2c(C)cc(OCc3ccc(F)cc3F)c(Br)c2=O)c1 [PH-797804] | 53 | 67 |  |  | 
31 | CC(=O)Nc1nc(C)c(-c2ccc(Cl)c(S(=O)(=O)NCCO)c2)s1 [PIK-93] |  |  | 75.51% |  | Avr FF/Renilla from DMSO [2, 5]: 0.72
32 | CCCCC[C@H](O)/C=C/[C@H]1C(=O)C[C@H](O)[C@@H]1C/C=C\CCCC(=O)NCCO [Prostaglandin D2 Ethanolamide] |  |  | 65.62% | 0.55 | 
33 | CCCCCC(O)/C=C/C1C(=O)CC(O)C1C/C=C\CCCC(=O)OCC(O)CO (centres unmarked) [Prostaglandin D2-1-glyceryl ester] |  |  | 58.41% | 0.59 | 
34 | CC(=O)O[C@@]12C[C@@H](C)[C@@]3(O)[C@@H](C=C(CO)C[C@]4(O)C(=O)C(C)=C[C@@H]34)[C@@H]1C2(C)C [Prostratin] | 146 | 55 |  |  | 
35 | O=C(Nc1ccc2[nH]ncc2c1)C1CCC1 [Rhodblock 6] |  |  | 89.97% | 0.87 | 
36 | CC[C@H](CO)Nc1nc(NCc2ccccc2)c2ncn(C(C)C)c2n1 [Roscovitine (Seliciclib, CYC202), Roscovitine] | 53.7 |  |  |  | activity at 10 µM [2]: 63%
37 | CCSC(=N)Nc1ccc(C(F)(F)F)cc1 [S-ethyl N-[4-(trifluoromethyl)phenyl] Isothiourea (hydrochloride)] | 76.8 | 59 |  |  | 
38 | Cn1cc(C2=C(c3ccc(Cl)cc3Cl)C(=O)NC2=O)c2ccccc21 [SB 216763] |  |  | 107.55% | 0.56 | 
39 | NC(=O)c1ccc(-c2nc(-c3ccccn3)c(-c3ccc4c(c3)OCO4)[nH]2)cc1 [SB 431542] |  |  | 51.90% | 0.50 | 
40 | Cc1cccc(-c2[nH]c(C(C)(C)C)nc2-c2ccc3nccnc3c2)n1 [SB-525334] |  |  | 51.73% | 0.37 | 
41 | O=[N+]([O-])c1ccc(CNc2nc(NCc3cccc(C(F)(F)F)c3)nc3nc[nH]c23)cc1 [TNP] |  |  |  |  | % Avr Renilla from DMSO [1]: 80.47%; Avr FF/Renilla from DMSO [2]: 0.88
42 | CCOC(=O)c1ccc(C#Cc2ccc3c(c2)C(C)(C)CCS3)nc1 [Tazarotene] | 67 | 59 |  |  | 
43 | CCO.N#CC(=C(/N)Sc1ccccc1N)/C(C#N)=C(\N)Sc1ccccc1N [U0126-EtOH] |  |  | 76.21% | 0.62 | 
44 | N#CC(=C(/N)Sc1ccccc1N)/C(C#N)=C(\N)Sc1ccccc1N [U0126] |  |  |  |  | viability at 10 µM [1]: 102%; activity at 10 µM [2]: 45%
45 | CCCCC/C=C\C/C=C\C/C=C\C/C=C\CCCC(=O)NCc1ccoc1 [UCM707] |  |  | 88.05% |  | Avr FF/Renilla from DMSO [2, 5]: 0.57
46 | CAY10587 |  |  | 72.88% | 0.56 | 
